According to paper PMC6593727 (Clinical Pharmacology in Drug Development, 2019):
Where two headings read alike, the source gives them in different places.

Tests used:
[1] = ASP8477 steady‐state plasma PK in the cocktail study; assay type: in vivo, human; conditions: for Ctrough: mean ± SD
CYP2C19 [2] = biological target: T1, CYP2C19 (Homo sapiens, UniProt P33261); assay: In vitro CYP inhibition studies in human liver microsomes using probe substrates; assay type: biochemical; conditions: for R value (FDA): R = 1 + (total Cmax/Ki); for R value (EMA): R = unbound Cmax/Ki
T1 sequence (P33261 whole entry): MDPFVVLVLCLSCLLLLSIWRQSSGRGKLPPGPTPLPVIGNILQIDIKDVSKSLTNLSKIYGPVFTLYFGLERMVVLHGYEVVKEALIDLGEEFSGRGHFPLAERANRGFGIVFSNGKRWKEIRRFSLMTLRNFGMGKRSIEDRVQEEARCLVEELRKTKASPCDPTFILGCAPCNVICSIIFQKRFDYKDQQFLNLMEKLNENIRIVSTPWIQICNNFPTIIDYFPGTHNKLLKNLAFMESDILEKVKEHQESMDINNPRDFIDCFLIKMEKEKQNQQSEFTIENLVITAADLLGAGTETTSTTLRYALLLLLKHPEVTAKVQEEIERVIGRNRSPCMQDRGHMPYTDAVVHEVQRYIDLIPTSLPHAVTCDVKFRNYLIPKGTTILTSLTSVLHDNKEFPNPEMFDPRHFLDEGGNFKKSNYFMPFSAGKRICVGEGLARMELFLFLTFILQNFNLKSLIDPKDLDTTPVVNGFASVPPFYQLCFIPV

CYP2C8 = biological target: T2, CYP2C8 (Homo sapiens, UniProt P10632); assay: as above; assay type: biochemical; conditions: for R value (FDA): R = 1 + (total Cmax/Ki); for R value (EMA): R = unbound Cmax/Ki
T2 sequence (P10632 1-490): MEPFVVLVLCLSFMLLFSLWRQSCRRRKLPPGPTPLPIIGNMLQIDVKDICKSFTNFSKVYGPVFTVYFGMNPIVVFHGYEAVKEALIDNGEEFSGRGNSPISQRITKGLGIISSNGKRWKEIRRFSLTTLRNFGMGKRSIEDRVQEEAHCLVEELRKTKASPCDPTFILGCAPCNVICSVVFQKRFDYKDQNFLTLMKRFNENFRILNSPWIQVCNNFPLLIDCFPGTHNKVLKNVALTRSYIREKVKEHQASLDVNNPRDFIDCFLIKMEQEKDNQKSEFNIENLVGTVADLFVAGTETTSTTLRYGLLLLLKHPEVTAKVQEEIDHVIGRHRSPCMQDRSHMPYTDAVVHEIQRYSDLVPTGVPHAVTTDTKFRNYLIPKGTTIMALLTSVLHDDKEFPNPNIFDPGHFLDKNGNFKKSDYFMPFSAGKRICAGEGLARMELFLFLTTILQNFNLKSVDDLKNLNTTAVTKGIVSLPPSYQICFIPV

CYP2C9 [3] = biological target: T3, CYP2C9 (Homo sapiens, UniProt P11712); assay: Inje cocktail DDI study: losartan and EXP‐3174 PK, assessment of CYP2C9 activity
T3 sequence (P11712 whole entry): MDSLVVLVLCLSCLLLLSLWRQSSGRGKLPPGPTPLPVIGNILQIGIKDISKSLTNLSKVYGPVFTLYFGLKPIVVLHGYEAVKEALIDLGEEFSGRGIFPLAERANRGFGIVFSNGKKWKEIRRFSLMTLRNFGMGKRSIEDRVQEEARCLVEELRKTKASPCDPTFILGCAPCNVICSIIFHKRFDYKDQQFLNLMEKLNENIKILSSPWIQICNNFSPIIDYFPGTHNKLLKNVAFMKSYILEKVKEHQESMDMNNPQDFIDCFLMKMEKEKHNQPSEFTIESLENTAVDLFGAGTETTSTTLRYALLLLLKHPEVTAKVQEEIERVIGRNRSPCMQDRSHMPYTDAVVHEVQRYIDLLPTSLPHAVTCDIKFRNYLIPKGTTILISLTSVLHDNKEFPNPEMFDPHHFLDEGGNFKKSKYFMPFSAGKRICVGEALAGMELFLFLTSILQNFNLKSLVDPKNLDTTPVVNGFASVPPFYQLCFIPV

CYP enzymes = assay: Induction of CYP enzymes in vitro; assay type: in vitro ADME
healthy female subjects = assay: Safety and tolerability: adverse events; assay type: in vivo, human
CYP3A4 [4] = biological target: T4, CYP3A4 (Homo sapiens, UniProt P08684); assay: In vitro CYP inhibition studies in human liver microsomes using probe substrates; assay type: biochemical; conditions: for R value (FDA): R = 1 + (total Cmax/Ki); for R value (EMA): R = unbound Cmax/Ki
T4 sequence (P08684 whole entry): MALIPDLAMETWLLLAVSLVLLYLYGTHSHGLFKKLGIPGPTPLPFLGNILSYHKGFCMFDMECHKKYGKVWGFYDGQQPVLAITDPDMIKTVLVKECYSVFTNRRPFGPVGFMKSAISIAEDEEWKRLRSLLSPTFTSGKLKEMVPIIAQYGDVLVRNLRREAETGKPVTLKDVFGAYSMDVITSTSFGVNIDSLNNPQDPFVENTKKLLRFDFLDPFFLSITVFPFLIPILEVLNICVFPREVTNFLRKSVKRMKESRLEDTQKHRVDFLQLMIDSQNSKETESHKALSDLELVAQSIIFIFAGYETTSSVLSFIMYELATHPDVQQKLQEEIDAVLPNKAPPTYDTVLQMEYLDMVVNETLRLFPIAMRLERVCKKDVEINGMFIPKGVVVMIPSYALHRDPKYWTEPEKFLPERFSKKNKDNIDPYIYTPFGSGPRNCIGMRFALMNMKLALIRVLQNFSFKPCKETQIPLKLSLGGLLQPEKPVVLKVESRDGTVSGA

[5] = ref clinical studies, cited from earlier work
CYP3A4 [6] = biological target: T4, CYP3A4
[7] = Fraction of unbound ASP8477 in humans; assay type: in vitro ADME, human; conditions: independent of the clinical concentration range
CYP2D6 [8] = biological target: T5, CYP2D6 (Homo sapiens, UniProt P10635)
T5 sequence (P10635 whole entry): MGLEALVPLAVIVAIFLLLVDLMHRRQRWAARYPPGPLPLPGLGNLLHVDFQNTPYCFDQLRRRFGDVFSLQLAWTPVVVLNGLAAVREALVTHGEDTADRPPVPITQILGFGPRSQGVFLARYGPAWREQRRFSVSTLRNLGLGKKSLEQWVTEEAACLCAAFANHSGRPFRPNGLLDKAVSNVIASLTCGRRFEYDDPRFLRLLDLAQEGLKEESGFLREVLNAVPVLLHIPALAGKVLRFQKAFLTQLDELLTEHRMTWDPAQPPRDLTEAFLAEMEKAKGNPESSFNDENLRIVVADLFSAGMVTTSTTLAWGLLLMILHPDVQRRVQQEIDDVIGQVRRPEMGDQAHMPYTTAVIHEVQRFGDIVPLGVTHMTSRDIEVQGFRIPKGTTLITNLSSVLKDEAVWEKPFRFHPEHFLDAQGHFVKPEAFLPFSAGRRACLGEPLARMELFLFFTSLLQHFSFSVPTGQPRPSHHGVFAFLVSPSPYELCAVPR

CYP2D6 [9] = biological target: T5, CYP2D6; assay: In vitro CYP inhibition studies in human liver microsomes using probe substrates; assay type: biochemical; conditions: for R value (FDA): R = 1 + (total Cmax/Ki); for R value (EMA): R = unbound Cmax/Ki
CYP2C19 [10] = biological target: T1, CYP2C19
CYP2C9 [11] = biological target: T3, CYP2C9; assay: In vitro CYP inhibition studies in human liver microsomes using probe substrates; assay type: biochemical; conditions: for R value (FDA): R = 1 + (total Cmax/Ki); for R value (EMA): R = unbound Cmax/Ki
[12] = female, human, plasma, oral, 20 mg
[13] = female, human, plasma, oral, 60 mg
[14] = female, human, plasma, oral, 100 mg

SMILES: O=C(Nc1ccccc1)C1CCN(C(=O)Oc2cccnc2)CC1 [ASP8477, 3‐pyridyl 4‐(phenylcarbamoyl)piperidine‐1‐carboxylate]
- dose proportionality of Cmax and AUCtau ([1]; 20, 60, 100 mg once daily): more than dose‐proportional
- Ctrough ([1]; Day 14, 60 mg ASP8477 qd): 91 ± 110 ng/mL
- Ctrough ([1]; Day 23, 100 mg ASP8477 qd): 740 ± 640 ng/mL
- AUC [1, 12]: 1600 ± 710 ng·h/mL
- Cmax [1, 12]: 400 ± 120 ng/mL
- Tmax [1, 12]: 1 h
- Cmax [1, 13]: 2000 ± 490 ng/mL
- Tmax [1, 13]: 2 h
- Cmax [1, 14]: 4200 ± 1200 ng/mL
- Tmax [1, 14]: 2 h
- Ki (CYP2C19 [2]): 1 µM
- R value (FDA) (CYP2C19 [2]; ASP8477 20 mg QD): 2.116
- R value (EMA) (CYP2C19 [2]; ASP8477 20 mg QD): 0.167
- R value (FDA) (CYP2C19 [2]; ASP8477 60 mg QD): 6.781
- R value (EMA) (CYP2C19 [2]; ASP8477 60 mg QD): 0.87
- Ki (CYP2C8): 15 µM
- R value (FDA) (CYP2C8; ASP8477 20 mg QD): 1.074
- R value (EMA) (CYP2C8; ASP8477 20 mg QD): 0.011
- R value (FDA) (CYP2C8; ASP8477 60 mg QD): 1.385
- R value (EMA) (CYP2C8; ASP8477 60 mg QD): 0.06
- in vivo CYP inhibition class (FDA guidance, AUC of probe substrate) (CYP2C9 [3]; 20 mg dose level): no effect
- in vivo CYP inhibition class (FDA guidance, AUC of probe substrate) (CYP2C9 [3]; 60 mg dose level): weak (1.25‐ to <2‐fold)
- in vivo CYP inhibition class (FDA guidance, AUC of probe substrate) (CYP2C9 [3]; 100 mg dose level): weak (1.25‐ to <2‐fold)
- overall in vivo inhibitor class (CYP2C9 [3]; doses from 20 to 100 mg): weak (1.25‐ to <2‐fold)
- effect on the induction of CYP enzymes (CYP enzymes): No clinically relevant effect
- tolerability (healthy female subjects; ASP8477 in conjunction with cocktail probes, healthy female subjects): generally well tolerated
- fatigue of moderate intensity (most frequent moderate AE) (healthy female subjects; all dose levels): 5 subjects
- discontinuation due to an AE (emotional lability, moderate) (healthy female subjects; day 15, at the 60 mg level): 1 subject
- AEs considered possibly or probably related to study drug (healthy female subjects; following 20 mg ASP8477): 11 subjects
- AEs considered possibly or probably related to study drug (healthy female subjects; following 60 mg ASP8477): 11 subjects
- AEs considered possibly or probably related to study drug (healthy female subjects; following 100 mg ASP8477): 13 subjects
- serious AEs or deaths (healthy female subjects; whole study): No serious AEs or deaths
- Ki (CYP3A4 [4]): 18 µM
- R value (FDA) (CYP3A4 [4]; ASP8477 20 mg QD): 1.062
- R value (EMA) (CYP3A4 [4]; ASP8477 20 mg QD): 0.009
- R value (FDA) (CYP3A4 [4]; ASP8477 60 mg QD): 1.321
- R value (EMA) (CYP3A4 [4]; ASP8477 60 mg QD): 0.05
- steady state achieved (mean trough concentration‐time profiles) ([5]; 20 mg once daily): 1 days
- steady state achieved (mean trough concentration‐time profiles) ([5]; 60 mg once daily): 3 days
- steady state achieved (mean trough concentration‐time profiles) ([5]; 100 mg once daily): 10 days
- dose excreted in urine as unchanged drug [5]: Approximately 1%
- in vivo CYP inhibition class (FDA guidance, AUC of probe substrate) (CYP3A4 [6]; 60 mg dose level): weak (1.25‐ to <2‐fold)
- in vivo CYP inhibition class (FDA guidance, AUC of probe substrate) (CYP3A4 [6]; 100 mg dose level): weak (1.25‐ to <2‐fold)
- overall in vivo inhibitor class (CYP3A4 [6]; doses from 20 to 100 mg): weak (1.25‐ to <2‐fold)
- fraction of unbound ASP8477 [7]: 15%
- in vivo CYP inhibition class (FDA guidance, AUC of probe substrate) (CYP2D6 [8]; 20 mg dose level): weak (1.25‐ to <2‐fold)
- in vivo CYP inhibition class (FDA guidance, AUC of probe substrate) (CYP2D6 [8]; 60 mg dose level): moderate (2‐ to <5‐fold)
- in vivo CYP inhibition class (FDA guidance, AUC of probe substrate) (CYP2D6 [8]; 100 mg dose level): strong (≥5‐fold)
- overall in vivo inhibitor class (CYP2D6 [8]; doses from 20 to 100 mg): weak to strong
- Ki (CYP2D6 [9]): 9.8 µM
- R value (FDA) (CYP2D6 [9]; ASP8477 20 mg QD): 1.114
- R value (EMA) (CYP2D6 [9]; ASP8477 20 mg QD): 0.017
- R value (FDA) (CYP2D6 [9]; ASP8477 60 mg QD): 1.590
- R value (EMA) (CYP2D6 [9]; ASP8477 60 mg QD): 0.09
- in vivo CYP inhibition class (FDA guidance, AUC of probe substrate) (CYP2C19 [10]; 20 mg dose level): moderate (2‐ to <5‐fold)
- in vivo CYP inhibition class (FDA guidance, AUC of probe substrate) (CYP2C19 [10]; 60 mg dose level): moderate (2‐ to <5‐fold)
- in vivo CYP inhibition class (FDA guidance, AUC of probe substrate) (CYP2C19 [10]; 100 mg dose level): strong (≥5‐fold)
- overall in vivo inhibitor class (CYP2C19 [10]; doses from 20 to 100 mg): moderate to strong
- Ki (CYP2C9 [11]): 8 µM
- R value (FDA) (CYP2C9 [11]; ASP8477 20 mg QD): 1.140
- R value (EMA) (CYP2C9 [11]; ASP8477 20 mg QD): 0.021
- R value (FDA) (CYP2C9 [11]; ASP8477 60 mg QD): 1.723
- R value (EMA) (CYP2C9 [11]; ASP8477 60 mg QD): 0.11
